Test results taken from patent US20220344599A1, “METAL COMPLEX AND ELECTRON TRANSPORTING MATERIAL COMPRISING SAME” (DYDEN CORPORATION, priority 2019, published 2022).

Test: dissolution test of metal complexes in protic polar solvents
Assay type: physicochemical
Set-up: key to dissolution test, 7.5 g/L: a case where an undissolved remnant was present was evaluated as “X”; a case where a slight undissolved remnant was present was evaluated as “Δ”; a case of complete dissolution was evaluated as “ο”
Method: The metal complexes obtained in [1] were each dissolved in a protic polar solvent shown in Table 1 to produce a liquid material for constructing the electron transport layer of an organic electroluminescent element.
For example, Metal complex L101-Cs was dissolved in 1-heptanol to prepare alcohol solutions of 7.5 g/L to 15 g/L.
In Table 1, a case where an undissolved remnant was present was evaluated as “X”, a case where a slight undissolved remnant was present was evaluated as “Δ”, and a case of complete dissolution was evaluated as “ο”.

| Structure (SMILES) | dissolution test, 7.5 g/L (1-Heptanol) | dissolution test, 15 g/L (1-Heptanol) | also measured |
| --- | --- | --- | --- |
| O=P(c1ccccc1)(c1ccccc1)c1ccc2ccc3ccc(-c4ccc(O)c5c4oc4cccnc45)nc3c2n1 [L303-Cs] | ○ |  |  |
| Oc1cccc2oc3cc(-c4ccc5ccc6cccnc6c5n4)cnc3c12 [L301-Cs] | Δ |  | dissolution test, 5 g/L (1-Heptanol, 5 g/L): ○; dissolution test, 7.5 g/L (2-Methoxyethanol): ○; dissolution test, 15 g/L (2-Methoxyethanol): ○ |
| O=P(c1ccccc1)(c1ccc2ccc3cccnc3c2n1)c1ccc(O)c2c1oc1cccnc12 (stereo not drawn) [L302-Rb] | ○ | ○ |  |
| O=P(c1ccccc1)(c1ccc2ccc3cccnc3c2n1)c1ccc(O)c2c1oc1cccnc12 (stereo not drawn) [L302-Li] | ○ | ○ |  |
| O=P(c1ccccc1)(c1ccc2ccc3cccnc3c2n1)c1ccc(O)c2c1oc1cccnc12 (stereo not drawn) [L302-Cs] | ○ | ○ |  |

Now from value to compound, other results behind:

| dissolution test, 7.5 g/L (1-Heptanol) | dissolution test, 15 g/L (1-Heptanol) | Structure (SMILES) | also measured |
| --- | --- | --- | --- |
| ○ |  | Oc1cccc2c1nc(-c1ccccc1)n2-c1cccc(-c2ccc3ccc4cccnc4c3n2)c1 [L101-Cs] |  |
| ○ |  | Oc1cccc2c1nc(-c1ccccc1)n2-c1cccc(-c2ccc3ccc4cccnc4c3n2)c1 [L101-Rb] |  |
| ○ |  | Oc1cccc2c1nc(-c1ccccc1)n2-c1ccc2ccc3cccnc3c2n1 [L102-Cs] |  |
| ○ |  | Oc1ccc(-c2ccc3ccc4cccnc4c3n2)c2c1nc(-c1ccccc1)n2-c1ccccc1 [L103-Cs] |  |
